pIC50: −log10 of the molar value.

In the assay the target is human PDE4D catalytic domain (Homo sapiens (Human), UniProt Q08499). Nature of the assay: PDE4 Assay (TR-FRET, FAM-cAMP cleavage). The assay is classed as biochemical. The conditions noted are these: human PDE4D catalytic domain (UniProt Q08499 [S380-L740]); 50% inhibition of substrate cleavage; read-out: PDE4 IC50 range. The essentials: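 PDE4D catalytic domain (S380-L740) incubated briefly with unlabelled cAMP plus FAM-cAMP and titrated compound. Reaction stopped with binding buffer holding metal-ion nanoparticles that bind AMP phospho groups and Tb donor, and AMP formation read by TR-FRET. IC50 versus controls, reported as ranges (nM).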
Sequence of human PDE4D catalytic domain (Q08499 380-740): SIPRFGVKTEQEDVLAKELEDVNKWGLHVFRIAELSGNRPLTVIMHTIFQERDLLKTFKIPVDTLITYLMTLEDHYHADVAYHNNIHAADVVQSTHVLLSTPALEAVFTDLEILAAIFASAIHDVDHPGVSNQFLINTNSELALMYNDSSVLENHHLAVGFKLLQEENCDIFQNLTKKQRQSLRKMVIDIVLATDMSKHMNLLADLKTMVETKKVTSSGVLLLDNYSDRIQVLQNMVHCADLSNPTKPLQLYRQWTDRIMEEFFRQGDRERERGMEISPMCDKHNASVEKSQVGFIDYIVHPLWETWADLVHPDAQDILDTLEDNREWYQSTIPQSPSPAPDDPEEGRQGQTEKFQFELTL
A general note: TR-FRET usually uses a lanthanide donor and a delayed reading to cut background.
By pIC50 is commonly meant the IC50 on a negative log10 scale, so that one unit is a factor of ten. For the compound `CCn1nc(CC(C)(C)COC(=O)c2cccc(C(=O)N(C)C)c2)c2c1C(=O)NCC1(CCOCC1)C2` [Example 229, [3-(1-ethyl-8-oxo-spiro[6,7-dihydro-4H-pyrazolo[3,4-c]azepine-5,4′-tetrahydro-pyran]-3-yl)-2,2-dimethyl-propyl] 3-(dimethyl-carbamoyl)benzoate], the pIC50 is greater than 7.00. As for `CCn1nc(CC(C)(C)COC(=O)c2cccc(C(=O)N3CCCC3)c2)c2c1C(=O)NCC1(CCOCC1)C2` [Example 230, [3-(1-ethyl-8-oxo-spiro[6,7-dihydro-4H-pyrazolo[3,4-c]azepine-5,4′-tetrahydro-pyran]-3-yl)-2,2-dimethyl-propyl] 3-(pyrrolidine-1-carbonyl)benzoate], the pIC50 was greater than 7.00. Next, `CCn1nc(CC(C)(C)COC(=O)c2cccc(C(=O)N3CCCCC3)c2)c2c1C(=O)NCC1(CCOCC1)C2` [Example 231, [3-(1-ethyl-8-oxo-spiro[6,7-dihydro-4H-pyrazolo[3,4-c]azepine-5,4′-tetrahydro-pyran]-3-yl)-2,2-dimethyl-propyl] 3-(piperidine-1-carbonyl)benzoate]: greater than 7.00; `CCn1nc(CC(C)(C)COC(=O)c2cccc(C(=O)N3CCOCC3)c2)c2c1C(=O)NCC1(CCOCC1)C2` [Example 232, [3-(1-ethyl-8-oxo-spiro[6,7-dihydro-4H-pyrazolo[3,4-c]azepine-5,4′-tetrahydro-pyran]-3-yl)-2,2-dimethyl-propyl] 3-(morpholine-4-carbonyl)benzoate]: greater than 7.00. To `CCn1nc(CC(C)(C)COC(=O)c2cccc(C(=O)N3CCN(C)CC3)c2)c2c1C(=O)NCC1(CCOCC1)C2` [Example 233, [3-(1-ethyl-8-oxo-spiro[6,7-dihydro-4H-pyrazolo[3,4-c]azepine-5,4′-tetrahydro-pyran]-3-yl)-2,2-dimethyl-propyl] 3-(4-methyl-piperazine-1-carbonyl)-benzoate] belongs greater than 7.00; to `CCn1nc(CC(C)(C)COC(=O)c2cccc(C(=O)N3CCN(C(C)=O)CC3)c2)c2c1C(=O)NCC1(CCOCC1)C2` [Example 234, [3-(1-ethyl-8-oxo-spiro[6,7-dihydro-4H-pyrazolo[3,4-c]azepine-5,4′-tetrahydropyran]-3-yl)-2,2-dimethyl-propyl] 3-(4-acetylpiperazine-1-carbonyl)benzoate], greater than 7.00. To `CCn1nc(CCCOC(=O)c2cocn2)c2c1C(=O)NCC1(CCOCC1)C2` [Example 235, 3-(1-ethyl-8-oxo-spiro[6,7-dihydro-4H-pyrazolo[3,4-c]azepine-5,4′-tetrahydro-pyran]-3-yl)propyl oxazole-4-carboxylate] belongs greater than 7.00; to `CCn1nc(CCCOC(=O)C2CCOC2)c2c1C(=O)NCC1(CCOCC1)C2` (centres unmarked) [Example 236, 3-(1-ethyl-8-oxo-spiro[6,7-dihydro-4H-pyrazolo[3,4-c]azepine-5,4′-tetrahydro-pyran]-3-yl)propyl tetrahydrofuran-3-carboxylate], greater than 7.00.

For the compound `CCn1nc(CCCOC(=O)c2ccn(C)n2)c2c1C(=O)NCC1(CCOCC1)C2` [Example 237, 3-(1-ethyl-8-oxo-spiro[6,7-dihydro-4H-pyrazolo[3,4-c]azepine-5,4′-tetrahydropyran]-3-yl)propyl 1-methylpyrazole-3-carboxylate], the pIC50 was greater than 7.00. Next, `CCn1nc(CCCOC(=O)c2cnn(C)c2)c2c1C(=O)NCC1(CCOCC1)C2` [Example 238, 3-(1-ethyl-8-oxo-spiro[6,7-dihydro-4H-pyrazolo[3,4-c]azepine-5,4′-tetrahydropyran]-3-yl)propyl 1-methylpyrazole-4-carboxylate]: greater than 7.00; `CCn1nc(CCCOC(=O)c2cn(C)cn2)c2c1C(=O)NCC1(CCOCC1)C2` [Example 239, 3-(1-ethyl-8-oxo-spiro[6,7-dihydro-4H-pyrazolo[3,4-c]azepine-5,4′-tetrahydropyran]-3-yl)propyl 1-methylimidazole-4-carboxylate]: greater than 7.00.

As for `CCn1nc(CCCOC(=O)c2coc(C)n2)c2c1C(=O)NCC1(CCOCC1)C2` [Example 240, 3-(1-ethyl-8-oxo-spiro[6,7-dihydro-4H-pyrazolo[3,4-c]azepine-5,4′-tetrahydropyran]-3-yl)propyl 2-methyloxazole-4-carboxylate], the pIC50 is greater than 7.00. To `CCn1nc(CCCOC(=O)c2cnc(C)o2)c2c1C(=O)NCC1(CCOCC1)C2` [Example 241, 3-(1-ethyl-8-oxo-spiro[6,7-dihydro-4H-pyrazolo[3,4-c]azepine-5,4′-tetrahydropyran]-3-yl)propyl 2-methyloxazole-5-carboxylate] belongs greater than 7.00. Next, `CCn1nc(CCCOC(=O)c2ccns2)c2c1C(=O)NCC1(CCOCC1)C2` [Example 242, 3-(1-ethyl-8-oxo-spiro[6,7-dihydro-4H-pyrazolo[3,4-c]azepine-5,4′-tetrahydropyran]-3-yl)propyl isothiazole-5-carboxylate]: greater than 7.00; `CCn1nc(CCCOC(=O)c2cnsc2)c2c1C(=O)NCC1(CCOCC1)C2` [Example 243, 3-(1-ethyl-8-oxo-spiro[6,7-dihydro-4H-pyrazolo[3,4-c]azepine-5,4′-tetrahydropyran]-3-yl)propyl isothiazole-4-carboxylate]: greater than 7.00; `CCn1nc(CCCOC(=O)c2cscn2)c2c1C(=O)NCC1(CCOCC1)C2` [Example 244, 3-(1-ethyl-8-oxo-spiro[6,7-dihydro-4H-pyrazolo[3,4-c]azepine-5,4′-tetrahydropyran]-3-yl)propyl thiazole-4-carboxylate]: greater than 7.00. To `CCn1nc(CCCOC(=O)c2cncs2)c2c1C(=O)NCC1(CCOCC1)C2` [Example 245, 3-(1-ethyl-8-oxo-spiro[6,7-dihydro-4H-pyrazolo[3,4-c]azepine-5,4′-tetrahydropyran]-3-yl)propyl thiazole-5-carboxylate] belongs greater than 7.00.

`CCn1nc(CCCOC(=O)C2CCOCC2)c2c1C(=O)NCC1(CCOCC1)C2` [Example 246, 3-(1-ethyl-8-oxo-spiro[6,7-dihydro-4H-pyrazolo[3,4-c]azepine-5,4′-tetrahydropyran]-3-yl)propyl tetrahydropyran-4-carboxylate]: the pIC50 is greater than 7.00. As for `CCn1nc(CCCOC(=O)c2cnc(C)nc2)c2c1C(=O)NCC1(CCOCC1)C2` [Example 247, 3-(1-ethyl-8-oxo-spiro[6,7-dihydro-4H-pyrazolo[3,4-c]azepine-5,4′-tetrahydropyran]-3-yl)propyl 2-methylpyrimidine-5-carboxylate], the pIC50 is greater than 7.00. As to `CCn1ccc(C(=O)OCCCc2nn(CC)c3c2CC2(CCOCC2)CNC3=O)n1` [Example 248, 3-(1-ethyl-8-oxo-spiro[6,7-dihydro-4H-pyrazolo[3,4-c]azepine-5,4′-tetrahydropyran]-3-yl)propyl 1-ethylpyrazole-3-carboxylate], the pIC50 is greater than 7.00. Next, `CCn1nc(CCCOC(=O)c2cc(C)n(C)n2)c2c1C(=O)NCC1(CCOCC1)C2` [Example 249, 3-(1-ethyl-8-oxo-spiro[6,7-dihydro-4H-pyrazolo[3,4-c]azepine-5,4′-tetrahydro-pyran]-3-yl)propyl 1,5-dimethylpyrazole-3-carboxylate]: greater than 7.00; `CCn1cc(C(=O)OCCCc2nn(CC)c3c2CC2(CCOCC2)CNC3=O)cn1` [Example 250, 3-(1-ethyl-8-oxo-spiro[6,7-dihydro-4H-pyrazolo[3,4-c]azepine-5,4′-tetrahydropyran]-3-yl)propyl 1-ethylpyrazole-4-carboxylate]: greater than 7.00. To `CCc1nc(C(=O)OCCCc2nn(CC)c3c2CC2(CCOCC2)CNC3=O)co1` [Example 251, 3-(1-ethyl-8-oxo-spiro[6,7-dihydro-4H-pyrazolo[3,4-c]azepine-5,4′-tetrahydropyran]-3-yl)propyl 2-ethyloxazole-4-carboxylate] belongs greater than 7.00. To `CCn1nc(CCCOC(=O)C2CN(C(C)=O)C2)c2c1C(=O)NCC1(CCOCC1)C2` [Example 252, 3-(1-ethyl-8-oxo-spiro[6,7-dihydro-4H-pyrazolo[3,4-c]azepine-5,4′-tetrahydropyran]-3-yl)propyl 1-acetylazetidine-3-carboxylate] belongs 6.30 to 7.00. Consider `CCn1nc(CCCOC(=O)c2cc(C)ns2)c2c1C(=O)NCC1(CCOCC1)C2` [Example 253, 3-(1-ethyl-8-oxo-spiro[6,7-dihydro-4H-pyrazolo[3,4-c]azepine-5,4′-tetrahydropyran]-3-yl)propyl 3-methylisothiazole-5-carboxylate], for which the pIC50 is greater than 7.00. With `CCn1nc(CCCOC(=O)c2csc(C)n2)c2c1C(=O)NCC1(CCOCC1)C2` [Example 254, 3-(1-ethyl-8-oxo-spiro[6,7-dihydro-4H-pyrazolo[3,4-c]azepine-5,4′-tetrahydropyran]-3-yl)propyl 2-methylthiazole-4-carboxylate], the pIC50 is greater than 7.00. Consider `CCn1nc(CCCOC(=O)c2cnc(C)s2)c2c1C(=O)NCC1(CCOCC1)C2` [Example 255, 3-(1-ethyl-8-oxo-spiro[6,7-dihydro-4H-pyrazolo[3,4-c]azepine-5,4′-tetrahydropyran]-3-yl)propyl 2-methylthiazole-5-carboxylate], for which the pIC50 is greater than 7.00. To `CCn1nc(CCCOC(=O)C2CCN(C)CC2)c2c1C(=O)NCC1(CCOCC1)C2` [Example 256, 3-(1-ethyl-8-oxo-spiro[6,7-dihydro-4H-pyrazolo[3,4-c]azepine-5,4′-tetrahydropyran]-3-yl)propyl 1-methylpiperidine-4-carboxylate] belongs 6.30 to 7.00; to `CCn1nc(CCCOC(=O)C2CCSCC2)c2c1C(=O)NCC1(CCOCC1)C2` [Example 257, 3-(1-ethyl-8-oxo-spiro[6,7-dihydro-4H-pyrazolo[3,4-c]azepine-5,4′-tetrahydro-pyran]-3-yl)propyl tetrahydro-thiopyran-4-carboxylate], greater than 7.00.

Source of the values: patent US10793580B2, “Substituted pyrazoloazepin-8-ones and their use as phosphodiesterase inhibitors” (LEO Pharma A/S, priority 2016, dated 2020).
